# Results: patent publication US11298369B2, “Composition and uses thereof” (Progen PG500 Series Pty Ltd, priority 2016, dated 2022)
# Key:
# [1] = test system: dendritic cell (DC); conditions: cited from earlier work
# [2] = mouse, in vivo, 20 mg/kg
# Procedure: Mice were weighed and tumours measured 2-3 times weekly using electronic callipers. Tumour volume (mm^3) was calculated as length (mm)/2×width (mm)^2. One week following implantation mice with similar sized tumours (mean tumour volume 56 mm^3) were randomised into 4 groups of 6 animals (Day 1). Treatment groups were saline+control antibody, PG545+control antibody, saline+anti-PD-1 and PG545+anti-PD-1.
# […] Mice received a small dish containing a food supplement (Ensure mixed with food dust) daily.
# In FIG. 1, the data represent the mean percent weight change from day 1 for each group; bars are standard error of the mean (SEM). […] It was decided to harvest the experiment on day 18.
# [3] = test system: advanced solid tumours; conditions: cited from earlier work
# [4] = test system: tumour-associated macrophages (TAMs) and myeloid-derived suppressor cells (MDSCs); conditions: preclinical pancreatic cancer models, chemically-induced skin cancer model; cited from earlier work
# [5] = test system: 4T1.2 tumours; test: 4T1.2 tumour model: tumour growth inhibition; assay type: in vivo, Balb/c mice; conditions: day 18, PG545 15 mg/kg weekly, antibody 200 μg intraperitoneally days 1, 4, 8, 11, 15
# Procedure: Female Balb/c mice (Age 8 weeks; Walter and Eliza Hall Institute of Medical Research (WEHI), Victoria Australia) were inoculated in the intramammary fatpad with 1×10^5 4T1.2 cells in phosphate buffered saline. 4T1.2 is a mouse mammary tumour model.
# The experiment was ended on day 18 or earlier if an ethical endpoint was met. Blood was collected via cardiac bleed and serum was prepared and frozen at −80° C.
# The percentage tumour growth inhibition was determined according to the following formula: 100×(1−ΔT/ΔC) where ΔC and ΔT were calculated by subtracting the mean tumour volume in each group on day 1 of treatment from the mean tumour volume on the day of analysis. Statistical analysis of the in vivo data was performed using Graph Pad Prism Version 6.0 (Graph Pad La Jolla, Calif.). An ANOVA analysis was performed followed by Dunnett's post hoc test to compare the tumour growth in the treated groups to the vehicle control.
structure (smiles),measurement,setting,value
"CC(C)CCC[C@@H](C)[C@H]1CC[C@H]2[C@@H]3CC[C@H]4C[C@@H](O[C@@H]5O[C@H](COS(=O)(=O)[O-])[C@@H](O[C@H]6O[C@H](COS(=O)(=O)[O-])[C@@H](O[C@H]7O[C@H](COS(=O)(=O)[O-])[C@@H](O[C@H]8O[C@H](COS(=O)(=O)[O-])[C@@H](OS(=O)(=O)[O-])[C@H](OS(=O)(=O)[O-])[C@H]8OS(=O)(=O)[O-])[C@H](OS(=O)(=O)[O-])[C@H]7OS(=O)(=O)[O-])[C@H](OS(=O)(=O)[O-])[C@H]6OS(=O)(=O)[O-])[C@H](OS(=O)(=O)[O-])[C@H]5OS(=O)(=O)[O-])CC[C@]4(C)[C@H]3CC[C@]12C.[Na+].[Na+].[Na+].[Na+].[Na+].[Na+].[Na+].[Na+].[Na+].[Na+].[Na+].[Na+].[Na+] [PG545, 3β,5α-Cholestanyl 2,3,4,6-tetra-O-sodium sulfonato-α-D-glucopyranosyl-(1→4)-2,3,6-tri-O-sodium sulfonato-α-D-glucopyranosyl-(1→4)-2,3,6-tri-O-sodium sulfonato-α-D-glucopyranosyl-(1→4)-2,3,6-tri-O-sodium sulfonato-β-D-glucopyranoside]",Activation of T cells,"[1]; PG545 alone, naïve mice and mice bearing A20 lymphoma tumours",does not activate T cells
same,Activation of NK cells,[1]; via effect on DCs,potent activation
same,Tolerability (maximum tolerated dose issues),[2],body weight issues
same,Reductions in tumour size,[3]; PG545 monotherapy,did not lead to reductions in tumour size
same,Maximum tolerated dose,"[3]; once weekly IV infusion, patients with advanced solid tumours",100 mg
same,TAMs and MDSCs within the tumour microenvironment,[4],depletion
same,Tumour growth inhibition (% TGI),[5],68%
